Legend:
OVCAR3 p-RB = test: pRB ICW Assay in OVCAR3 Cells; assay type: cell-based; conditions: Homo sapiens, OVCAR-3, incubated with compound for 2 hours
Outline: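 In-Cell Western on OVCAR3: phospho-RB antibody signal with DRAQ5 counterstain read at 700 and 800 nm after fixation. Compounds were applied for 2 h at 37° C. as 9-point ½-log dilutions in duplicate; 10 μM reference compound defined full inhibition.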

CDK2/Cyclin E2 = target: T1, CDK2/Cyclin E2 (Homo sapiens, UniProt P24941); test: CDK2/CyclinE2 Enzymatic Activity Assay (TR-FRET); assay type: biochemical; conditions: ATP 1 mM final, read-out: CDK2_E1 IC50
T1 construct: Recombinant protein complex CDK2/Cyclin E2, expressed from insect cell, was purchased from ProQinase
Outline: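 Recombinant insect-cell CDK2/Cyclin E2 (1 nM) phosphorylated ULight-4E-BP1 (50 nM) with 1 mM ATP in HEPES pH 7.4 buffer, after 20 min compound preincubation; MgCl2 (10 mM) started the 45 min reaction at 37° C. Europium anti-phospho-4E-BP1 TR-FRET read; 9-dose IC50 by 4-parameter fit.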

CDK4/Cyclin D1 = target: T2, CDK4/Cyclin D1 (Homo sapiens, UniProt P11802); test: CDK4/CyclinD1 Enzymatic Activity Assay (TR-FRET); assay type: biochemical; conditions: ATP 2 mM final, read-out: CDK4_D1 IC50
T2 construct: purchased ProQinase; host or cells: insect cell
T2 sequence (P11802 whole entry): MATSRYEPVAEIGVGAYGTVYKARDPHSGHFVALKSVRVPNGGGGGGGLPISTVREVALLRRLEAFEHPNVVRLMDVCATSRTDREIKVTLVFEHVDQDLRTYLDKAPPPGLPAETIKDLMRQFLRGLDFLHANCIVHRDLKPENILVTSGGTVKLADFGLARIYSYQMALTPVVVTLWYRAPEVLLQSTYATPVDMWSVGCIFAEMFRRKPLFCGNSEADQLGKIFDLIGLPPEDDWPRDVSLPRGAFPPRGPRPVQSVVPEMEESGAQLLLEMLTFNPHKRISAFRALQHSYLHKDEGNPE
T2 sequence (P24385 whole entry partner): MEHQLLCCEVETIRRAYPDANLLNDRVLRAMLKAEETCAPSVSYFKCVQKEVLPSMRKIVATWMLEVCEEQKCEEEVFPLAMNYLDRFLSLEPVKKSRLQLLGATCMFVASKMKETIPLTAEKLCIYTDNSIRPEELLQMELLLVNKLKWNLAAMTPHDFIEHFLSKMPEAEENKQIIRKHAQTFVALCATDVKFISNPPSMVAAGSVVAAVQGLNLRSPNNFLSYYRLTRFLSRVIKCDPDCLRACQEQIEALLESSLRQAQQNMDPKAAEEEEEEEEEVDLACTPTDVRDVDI
Description: CDK4/CyclinD1 Enzymatic Activity Assay
The inhibitory activity of compounds was evaluated in vitro using TR-FRET assay with white 384-well low volume microplate (Greiner Bio-One). CDK4/Cyclin D1 catalyzed phosphorylation of peptide in the presence and absence of compounds was measured and used in IC50 determination. Recombinant protein complex CDK4/Cyclin D1, expressed from insect cell, was purchased from ProQinase. Testing compounds were dissolved in DMSO at 1 mM and tested in 9-dose IC50 mode. The reaction mixture was prepared by mixing CDK4/CyclinD1 (1 nM final), ULight-4E-BP1 (100 nM final, Perkinelmer, TRF0128-D), and ATP (2 mM final) in assay buffer (20 mM of HEPES pH 7.4, 1 mM of EGTA, 0.05% BSA, 0.005% Tween 20, and 1 mM TCEP). The compound of interest in DMSO was added to each well in 3-fold serial dilution by the dispenser (TECAN D300E) to make a 9.9 μL of reaction mixture. After 20 minutes preincubation at room temperature, 0.1 μL MgCl2 (10 mM final) was added to initiate the reaction. Following a 45-minute incubation at 37° C., the reaction was stopped by addition of 2 μL of quenching buffer consisting of Lance detection buffer (Perkinelmer CR97-100C), LANCE Ultra Europium-anti-P-4E-BP1 (Perkinelmer, TRF0216-D), EDTA, and incubated at room temperature for additional 60 minutes in dark. The reaction signal was measured by Envision multimode plate reader (PerkinElmer, 2102-0010). IC50 values were determined by fitting the data to the standard 4 parameters with Hill Slope using GraphPad Prism software.

| IC50 (OVCAR3 p-RB) | IC50 (CDK2/Cyclin E2) | IC50 (CDK4/Cyclin D1) | Compound |
| --- | --- | --- | --- |
| ≤ 0.1 µM | ≤ 0.1 µM | ≤ 0.1 µM | Cc1sc(-c2nc(N[C@H]3CCN(S(=O)(=O)c4cnn(C)c4)C[C@H]3C)ncc2C(F)(F)F)cc1C(N)=O [Example 23, 2-methyl-5-(2-(((3R,4S)-3-methyl-1-((1-methyl-1H-pyrazol-4-yl)sulfonyl)piperidin-4-yl)amino)-5-(trifluoromethyl)pyrimidin-4-yl)thiophene-3-carboxamide] |
| ≤ 0.1 µM | ≤ 0.1 µM | ≤ 0.1 µM | Cc1sc(-c2nc(N[C@H]3CCN(S(=O)(=O)c4cn(C)cn4)C[C@H]3C)ncc2C(F)(F)F)cc1C(N)=O [Example 24, 2-methyl-5-(2-(((3R,4S)-3-methyl-1-((1-methyl-1H-imidazol-4-yl)sulfonyl)piperidin-4-yl)amino)-5-(trifluoromethyl)pyrimidin-4-yl)thiophene-3-carboxamide] |
| 0.1 to 0.5 µM | ≤ 0.1 µM | ≤ 0.1 µM | Cc1sc(-c2nc(N[C@H]3CCN(S(=O)(=O)c4c[nH]cn4)C[C@H]3C)ncc2C(F)(F)F)cc1C(N)=O [Example 25, 5-(2-(((3R,4S)-1-((1H-imidazol-4-yl)sulfonyl)-3-methylpiperidin-4-yl)amino)-5-(trifluoromethyl)pyrimidin-4-yl)-2-methylthiophene-3-carboxamide] |
| ≤ 0.1 µM | ≤ 0.1 µM | ≤ 0.1 µM | Cc1cnc(-c2nc(N[C@H]3CCN(S(=O)(=O)c4cnn(C)c4)C[C@H]3F)ncc2C(F)(F)F)s1 [Example 26, N-((3R,4S)-3-fluoro-1-((1-methyl-1H-pyrazol-4-yl)sulfonyl)piperidin-4-yl)-4-(5-methylthiazol-2-yl)-5-(trifluoromethyl)pyrimidin-2-amine] |
| 0.1 to 0.5 µM | ≤ 0.1 µM | ≤ 0.1 µM | Cc1cnc(-c2nc(N[C@@H]3CCN(S(=O)(=O)c4cnn(C)c4)C[C@H]3F)ncc2C(F)(F)F)s1 [Example 27, N-((3R,4R)-3-fluoro-1-((1-methyl-1H-pyrazol-4-yl)sulfonyl)piperidin-4-yl)-4-(5-methylthiazol-2-yl)-5-(trifluoromethyl)pyrimidin-2-amine] |
| ≤ 0.1 µM | ≤ 0.1 µM | ≤ 0.1 µM | Cc1cnc(-c2nc(N[C@H]3CCN(S(=O)(=O)c4cn(C)cn4)C[C@H]3F)ncc2C(F)(F)F)s1 [Example 28, N-((3R,4S)-3-fluoro-1-((1-methyl-1H-imidazol-4-yl)sulfonyl)piperidin-4-yl)-4-(5-methylthiazol-2-yl)-5-(trifluoromethyl)pyrimidin-2-amine] |
| 0.1 to 0.5 µM | ≤ 0.1 µM | ≤ 0.1 µM | Cc1cnc(-c2nc(N[C@@H]3CCN(S(=O)(=O)c4cn(C)cn4)C[C@H]3F)ncc2C(F)(F)F)s1 [Example 29, N-((3R,4R)-3-fluoro-1-((1-methyl-1H-imidazol-4-yl)sulfonyl)piperidin-4-yl)-4-(5-methylthiazol-2-yl)-5-(trifluoromethyl)pyrimidin-2-amine] |
| ≤ 0.1 µM | ≤ 0.1 µM | ≤ 0.1 µM | Cc1sc(-c2nc(N[C@H]3CCN(S(=O)(=O)c4cnn(C)c4)C[C@H]3F)ncc2C(F)(F)F)cc1C#N [Example 30, 5-(2-(((3R,4S)-3-fluoro-1-((1-methyl-1H-pyrazol-4-yl)sulfonyl)piperidin-4-yl)amino)-5-(trifluoromethyl)pyrimidin-4-yl)-2-methylthiophene-3-carbonitrile] |
| ≤ 0.1 µM | ≤ 0.1 µM | ≤ 0.1 µM | Cc1sc(-c2nc(N[C@H]3CCN(S(=O)(=O)c4cn(C)cn4)C[C@H]3F)ncc2C(F)(F)F)cc1C#N [Example 31, 5-(2-(((3R,4S)-3-fluoro-1-((1-methyl-1H-imidazol-4-yl)sulfonyl)piperidin-4-yl)amino)-5-(trifluoromethyl)pyrimidin-4-yl)-2-methylthiophene-3-carbonitrile] |
| ≤ 0.1 µM | ≤ 0.1 µM | ≤ 0.1 µM | Cc1cnc(-c2nc(NC3CCN(S(=O)(=O)c4cn(C)cn4)CC3)ncc2C(F)(F)F)s1 [Example 32, N-(1-((1-methyl-1H-imidazol-4-yl)sulfonyl)piperidin-4-yl)-4-(5-methylthiazol-2-yl)-5-(trifluoromethyl)pyrimidin-2-amine] |
| ≤ 0.1 µM | ≤ 0.1 µM | ≤ 0.1 µM | CC(O)c1sc(-c2nc(NC3CCN(S(=O)(=O)c4cn(C)cn4)CC3)ncc2C(F)(F)F)cc1C#N (stereo not drawn) [Example 33, 2-(1-hydroxyethyl)-5-(2-((1-((1-methyl-1H-imidazol-4-yl)sulfonyl)piperidin-4-yl)amino)-5-(trifluoromethyl)pyrimidin-4-yl)thiophene-3-carbonitrile] |
| ≤ 0.1 µM | ≤ 0.1 µM | ≤ 0.1 µM | CC(O)c1sc(-c2nc(N[C@H]3CCN(S(=O)(=O)c4cnn(C)c4)C[C@H]3F)ncc2C(F)(F)F)cc1C#N (stereo partly drawn) [Example 34, 5-(2-(((3R,4S)-3-fluoro-1-((1-methyl-1H-pyrazol-4-yl)sulfonyl)piperidin-4-yl)amino)-5-(trifluoromethyl)pyrimidin-4-yl)-2-(1-hydroxyethyl)thiophene-3-carbonitrile] |
| ≤ 0.1 µM | ≤ 0.1 µM | ≤ 0.1 µM | CC(O)c1sc(-c2nc(N[C@H]3CCN(S(=O)(=O)c4cn(C)cn4)C[C@H]3F)ncc2C(F)(F)F)cc1C#N (stereo partly drawn) [Example 35, 5-(2-(((3R,4S)-3-fluoro-1-((1-methyl-1H-imidazol-4-yl)sulfonyl)piperidin-4-yl)amino)-5-(trifluoromethyl)pyrimidin-4-yl)-2-(1-hydroxyethyl)thiophene-3-carbonitrile] |
| ≤ 0.1 µM | ≤ 0.1 µM | ≤ 0.1 µM | CC(O)c1sc(-c2nc(N[C@@H]3CCN(S(=O)(=O)c4cnn(C)c4)C[C@H]3F)ncc2C(F)(F)F)cc1C#N (stereo partly drawn) [Example 36, 5-(2-(((3R,4R)-3-fluoro-1-((1-methyl-1H-pyrazol-4-yl)sulfonyl)piperidin-4-yl)amino)-5-(trifluoromethyl)pyrimidin-4-yl)-2-(1-hydroxyethyl)thiophene-3-carbonitrile] |
| ≤ 0.1 µM | ≤ 0.1 µM | ≤ 0.1 µM | CC(O)c1sc(-c2nc(N[C@@H]3CCN(S(=O)(=O)c4cn(C)cn4)C[C@H]3F)ncc2C(F)(F)F)cc1C#N (stereo partly drawn) [Example 37, 5-(2-(((3R,4R)-3-fluoro-1-((1-methyl-1H-imidazol-4-yl)sulfonyl)piperidin-4-yl)amino)-5-(trifluoromethyl)pyrimidin-4-yl)-2-(1-hydroxyethyl)thiophene-3-carbonitrile] |
| 0.1 to 0.5 µM | ≤ 0.1 µM | 0.1 to 0.5 µM | C[C@@H]1CN(S(=O)(=O)c2cnn(C)c2)CC[C@@H]1Nc1ncc(C(F)(F)F)c(-c2cc(C#N)c(CC(C)(C)O)s2)n1 [Example 38, 2-(2-hydroxy-2-methylpropyl)-5-(2-(((3R,4S)-3-methyl-1-((1-methyl-1H-pyrazol-4-yl)sulfonyl)piperidin-4-yl)amino)-5-(trifluoromethyl)pyrimidin-4-yl)thiophene-3-carbonitrile] |
| ≤ 0.1 µM | ≤ 0.1 µM | ≤ 0.1 µM | Cn1cnc(S(=O)(=O)N2CCC(Nc3ncc(C(F)(F)F)c(-c4cc(C#N)c(CC(C)(C)O)s4)n3)CC2)c1 [Example 39, 2-(2-hydroxy-2-methylpropyl)-5-(2-((1-((1-methyl-1H-imidazol-4-yl)sulfonyl)piperidin-4-yl)amino)-5-(trifluoromethyl)pyrimidin-4-yl)thiophene-3-carbonitrile] |
| 0.1 to 0.5 µM | ≤ 0.1 µM | 0.1 to 0.5 µM | C[C@@H]1CN(S(=O)(=O)c2cn(C)cn2)CC[C@@H]1Nc1ncc(C(F)(F)F)c(-c2cc(C#N)c(CC(C)(C)O)s2)n1 [Example 40, 2-(2-hydroxy-2-methylpropyl)-5-(2-(((3R,4S)-3-methyl-1-((1-methyl-1H-imidazol-4-yl)sulfonyl)piperidin-4-yl)amino)-5-(trifluoromethyl)pyrimidin-4-yl)thiophene-3-carbonitrile] |
| ≤ 0.1 µM | ≤ 0.1 µM | ≤ 0.1 µM | Cn1cc(S(=O)(=O)N2CC[C@H](Nc3ncc(C(F)(F)F)c(-c4cc(C#N)c(CC(C)(C)O)s4)n3)[C@H](F)C2)cn1 [Example 41, 5-(2-(((3R,4S)-3-fluoro-1-((1-methyl-1H-pyrazol-4-yl)sulfonyl)piperidin-4-yl)amino)-5-(trifluoromethyl)pyrimidin-4-yl)-2-(2-hydroxy-2-methylpropyl)thiophene-3-carbonitrile] |
